Measurements as given in patent publication US12655107B2 (The United States of America, as represented by the …, priority 2018, dated 2026).
Like-named read-outs stand apart in the source and are kept apart here.

Assays:
[1] = target: T1, Top1-DNA covalent cleavage complexes in HCT116 cells (Homo sapiens, UniProt P11387); test: Immunocomplex of enzyme to DNA (ICE) assay; assay type: cell-based; conditions: HCT116, 25, 50 and 100 μM
T1 construct: endogenous in cells; host or cells: HCT116 (human colon cancer)

[2] = test system: γH2AX foci in HCT116 cells; test: γH2AX detection by immunofluorescence; assay type: cell-based, human; conditions: HCT116, 1 μM, 3 h
Procedure: To evaluate the DNA damaging effect of 50 in cancer cells, γH2AX foci were assessed by immunofluorescence microscopy in human […] HCT116 cells. After incubation with the compounds for 3 h, the HCT116 cells were stained with γH2AX antibodies.
HCT116 cells (2×10^4 cells/mL) were grown in culture medium and treated with compounds for 3 h at 37° C. […] Cells were permeabilized with 0.5% Triton X-100 in PBS at 0° C. for 30 min. Dish was blocked with 5% goat serum/PBS at 37° C. for 3 h. […] The dishes were again washed six times with blocking buffer. Digital images were recorded using an LSM710 microscope (Zeiss, Germany) and analyzed with ZEN software.

HCT116 cells = test: Flow cytometry apoptosis assay; assay type: cell-based, human
Procedure: To evaluate the induction of apoptosis by 50, flow cytometry assays were performed in HCT116 cells.
The stained cells were analyzed by using flow cytometry (BD, FACSCalibur, USA) within I h. The experiments were repeated three times independently.

[3] = Pharmacokinetic study in rat; conditions: SD rats
Procedure: The SD rats were divided into two groups (n=3) and treated by intravenous injection (i.v.) at 1 mg/kg dose and intragastrical administration (i.g.) at 5 mg/kg dose, respectively.
A pharmacokinetic (PK) study in vivo of 50 was performed in Sprague-Dawley (SD) rats. The SD rats were randomly divided into two groups […] and treated by intravenous injection (iv) at 1 mg/kg dose or an intragastrical administration (ig) at 5 mg/kg dose, respectively. Plasma samples were collected postdosing and the concentration of 50 was measured.
Plasma samples (100 μL) were obtained after centrifugation for 10 min at 3000 rpm and stored at −20° C. until used for analysis. The plasma was detected through LC-MS-MS.

MCF-7 xenograft = test: In vivo antitumor activity, MCF-7 xenograft; set-up: species or system nude mice; tumor weight inhibitions (TWI): dose or concentration left out as unconfirmed

T1 sequence (P11387 2-765 limits assumed, one chain of several): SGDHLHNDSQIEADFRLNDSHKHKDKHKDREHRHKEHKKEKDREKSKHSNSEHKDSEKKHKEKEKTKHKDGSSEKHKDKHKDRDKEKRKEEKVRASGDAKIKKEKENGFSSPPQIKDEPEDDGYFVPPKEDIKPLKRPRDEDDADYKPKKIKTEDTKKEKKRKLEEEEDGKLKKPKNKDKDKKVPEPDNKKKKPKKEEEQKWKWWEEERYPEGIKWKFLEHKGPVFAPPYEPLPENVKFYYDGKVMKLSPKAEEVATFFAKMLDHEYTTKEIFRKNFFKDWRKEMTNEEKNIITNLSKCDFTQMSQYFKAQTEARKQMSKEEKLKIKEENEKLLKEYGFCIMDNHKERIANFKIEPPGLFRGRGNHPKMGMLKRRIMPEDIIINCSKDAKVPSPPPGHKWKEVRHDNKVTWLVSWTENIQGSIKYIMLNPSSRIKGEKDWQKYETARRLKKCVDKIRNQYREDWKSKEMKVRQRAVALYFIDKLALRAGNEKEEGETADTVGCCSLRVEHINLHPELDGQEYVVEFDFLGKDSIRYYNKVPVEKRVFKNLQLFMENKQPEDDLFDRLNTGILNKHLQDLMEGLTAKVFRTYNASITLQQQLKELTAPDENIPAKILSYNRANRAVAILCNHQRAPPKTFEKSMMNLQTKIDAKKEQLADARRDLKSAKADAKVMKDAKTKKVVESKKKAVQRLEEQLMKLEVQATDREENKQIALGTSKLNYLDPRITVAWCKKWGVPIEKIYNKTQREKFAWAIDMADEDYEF

CNCCn1c(=O)c2cc(OC)c(OC)cc2c2ccc3cc4c(cc3c21)OCO4 [Compound 50, 2,3-dimethoxy-12-(2-(methylamino)ethyl)-[1,3]dioxolo[4′5′:4,5]benzo[1,2-c]phenanthridin-13(12H)-one]
induction of cellular Top1cc [1]: induced the formation of cellular TOP1 cc in a dose-dependent manner
γH2AX foci [2]: effectively induced γH2AX foci
early apoptotic cells (HCT116 cells; HCT116, 24 h, 2 μM): 27.95%
induction of apoptosis (HCT116 cells; HCT116, 24 h, 0.5, 1 and 2 μM): clearly induced HCT116 cells apoptosis in a dose-dependent manner
AUC0→t ([3]; i.g. 5 mg/kg): 48.3 ± 28 ng·h/mL
Cmax ([3]; i.g. 5 mg/kg): 19 ± 9 ng/mL
Tmax ([3]; i.g. 5 mg/kg): 2 ± 0 h
F (%) ([3]; i.g. 5 mg/kg vs i.v. 1 mg/kg): 20.4%
AUC0→t ([3]; i.v. 1 mg/kg): 47.2 ± 1.8 ng·h/mL
AUC0→∞ ([3]; i.v. 1 mg/kg): 49.8 ± 1.5 ng·h/mL
MRTINF ([3]; i.v. 1 mg/kg): 1.46 ± 0.027 h
T1/2 ([3]; i.v. 1 mg/kg): 1.21 h
tumor weight inhibitions (TWI) (MCF-7 xenograft; MCF-7 model, ip daily): 71.8%
tumor volume (MCF-7 xenograft; MCF-7 xenograft, 5, 10, 20 mg/kg ip daily): significantly reduced the tumor volume in a dose-dependent manner
median lethal dose (LD50) (i.p., dose to kill half of mice after 7 days): 192 mg/kg
mouse survival (mouse, in vivo, ip, 192 mg/kg): three mice survived
mouse survival (single i.p. dose 122.9 mg/kg, 7 days): all mice survived
mouse survival (single i.p. dose 153.6 mg/kg, 7 days): four mice survived
mouse survival (single i.p. dose 240 mg/kg, 7 days): two mice survived
mouse survival (single i.p. dose 300 mg/kg, 7 days): All mice died within 5 days
